Laboratory results as given in PubChem BioAssay AID2060888 (Molecular Pharmacology Branch, DTP, NCI, 2025).
Blank lines part the entries; values can stand above or below the compound they belong to.

Test system: 695427-040-R-J1-PDC complex spheroid viability
Assay: Anticancer human tumor 695427-040-R-J1-PDC patient-derived colon adenocarcinoma cell line growth inhibition [RAS]
Conditions: for IC50: curve of first compound; for viability, T/C: stronger effect = lower value
How it was run: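 Tumour cells grown as complex spheroids with HUVEC endothelial cells and mesenchymal stem cells, treated with RAS pathway inhibitor combinations. Each agent spans half-log steps from near clinical Cmax, or 10 microM where Cmax is unknown.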

[1] = second compound 0.000949 µM, first compound 0.00316 µM
[2] = second compound 0.000949 µM, first compound 0.01 µM
[3] = second compound 0.000949 µM, first compound 0.0316 µM
[4] = second compound 0.000949 µM, first compound 0.1 µM
[5] = second compound 0.003 µM, first compound 0.00316 µM
[6] = second compound 0.003 µM, first compound 0.01 µM
[7] = second compound 0.003 µM, first compound 0.0316 µM
[8] = second compound 0.003 µM, first compound 0.1 µM
[9] = second compound 0.00949 µM, first compound 0.00316 µM
[10] = second compound 0.00949 µM, first compound 0.01 µM
[11] = second compound 0.00949 µM, first compound 0.0316 µM
[12] = second compound 0.00949 µM, first compound 0.1 µM
[13] = second compound 0.03 µM, first compound 0.00316 µM
[14] = second compound 0.03 µM, first compound 0.01 µM
[15] = second compound 0.03 µM, first compound 0.0316 µM
[16] = second compound 0.03 µM, first compound 0.1 µM
[17] = second compound 0.0949 µM, first compound 0.00316 µM
[18] = second compound 0.0949 µM, first compound 0.01 µM
[19] = second compound 0.0949 µM, first compound 0.0316 µM
[20] = second compound 0.0949 µM, first compound 0.1 µM
[21] = second compound 0.3 µM, first compound 0.00316 µM
[22] = second compound 0.3 µM, first compound 0.01 µM
[23] = second compound 0.3 µM, first compound 0.0316 µM
[24] = second compound 0.3 µM, first compound 0.1 µM
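Further: viability read after seven days of drug exposure.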
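Wherever viability, T/C is given: 100% = DMSO vehicle control viability.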

- IC50 (second compound 0.000949 µM): > 100 nM
- IC50 (second compound 0.003 µM): > 100 nM
- IC50 (second compound 0.00949 µM): > 100 nM
- IC50 (second compound 0.03 µM): > 100 nM
- IC50 (second compound 0.0949 µM): 95.3 nM
- IC50 (second compound 0.3 µM): 89.7 nM
SMILES: CC(C)n1nc(-c2ccc3oc(N)nc3c2)c2c(N)ncnc21 + CCn1c(-c2cccnc2C(C)OC)c2c3cc(ccc31)N1CCOC(CC(NC(=O)C(C(C)C)N(C)C(=O)C3(F)CCN(C(=O)C#CC(C)(C)N(C)C)CC3)C(=O)N3CCCC(N3)C(=O)OCC(C)(C)C2)C1
- viability, T/C (second compound 0.000949 µM, first compound 0.000316 µM): 107%
- viability, T/C (second compound 0.000949 µM, first compound 0.001 µM): 120%
- viability, T/C [1]: 78.7%
- viability, T/C [2]: 90.6%
- viability, T/C [3]: 74.3%
- viability, T/C [4]: 56.2%
- viability, T/C (second compound 0.003 µM, first compound 0.000316 µM): 107%
- viability, T/C (second compound 0.003 µM, first compound 0.001 µM): 84.3%
- viability, T/C [5]: 98.6%
- viability, T/C [6]: 83.5%
- viability, T/C [7]: 62.1%
- viability, T/C [8]: 57.3%
- viability, T/C (second compound 0.00949 µM, first compound 0.000316 µM): 110%
- viability, T/C (second compound 0.00949 µM, first compound 0.001 µM): 89.7%
- viability, T/C [9]: 85.5%
- viability, T/C [10]: 74.2%
- viability, T/C [11]: 73.5%
- viability, T/C [12]: 56.5%
- viability, T/C (second compound 0.03 µM, first compound 0.000316 µM): 108%
- viability, T/C (second compound 0.03 µM, first compound 0.001 µM): 80.2%
- viability, T/C [13]: 66%
- viability, T/C [14]: 78.3%
- viability, T/C [15]: 77.7%
- viability, T/C [16]: 62.5%
- viability, T/C (second compound 0.0949 µM, first compound 0.000316 µM): 86.1%
- viability, T/C (second compound 0.0949 µM, first compound 0.001 µM): 79.2%
- viability, T/C [17]: 66.8%
- viability, T/C [18]: 76.9%
- viability, T/C [19]: 73.4%
- viability, T/C [20]: 48.9%
- viability, T/C (second compound 0.3 µM, first compound 0.000316 µM): 83.2%
- viability, T/C (second compound 0.3 µM, first compound 0.001 µM): 104%
- viability, T/C [21]: 81%
- viability, T/C [22]: 74.8%
- viability, T/C [23]: 64.5%
- viability, T/C [24]: 48%

- IC50 (second compound 0.000949 µM): > 300 nM
- IC50 (second compound 0.003 µM): > 300 nM
- IC50 (second compound 0.00949 µM): > 300 nM
- IC50 (second compound 0.03 µM): > 300 nM
- IC50 (second compound 0.0949 µM): < 0.949 nM
- IC50 (second compound 0.3 µM): < 0.949 nM
SMILES: CC1(C)CCC(Nc2ncc(C(F)(F)F)c(-c3c[nH]c4c(P(C)(C)=O)c(C#N)ccc34)n2)CN1 (stereo unspecified) + CCn1c(-c2cc(N3CCN(C)CC3)cnc2C(C)OC)c2c3cc(ccc31)-c1csc(n1)CC(NC(=O)C1CC1C)C(=O)N1CCCC(N1)C(=O)OCC(C)(C)C2
- viability, T/C (second compound 0.000949 µM, first compound 0.000949 µM): 98%
- viability, T/C (second compound 0.000949 µM, first compound 0.003 µM): 101%
- viability, T/C (second compound 0.000949 µM, first compound 0.00949 µM): 84%
- viability, T/C (second compound 0.000949 µM, first compound 0.03 µM): 92.2%
- viability, T/C (second compound 0.000949 µM, first compound 0.0949 µM): 91.8%
- viability, T/C (second compound 0.000949 µM, first compound 0.3 µM): 77.6%
- viability, T/C (second compound 0.003 µM, first compound 0.000949 µM): 94.8%
- viability, T/C (second compound 0.003 µM, first compound 0.003 µM): 85.5%
- viability, T/C (second compound 0.003 µM, first compound 0.00949 µM): 77.9%
- viability, T/C (second compound 0.003 µM, first compound 0.03 µM): 77.2%
- viability, T/C (second compound 0.003 µM, first compound 0.0949 µM): 80.6%
- viability, T/C (second compound 0.003 µM, first compound 0.3 µM): 69.3%
- viability, T/C (second compound 0.00949 µM, first compound 0.000949 µM): 71.4%
- viability, T/C (second compound 0.00949 µM, first compound 0.003 µM): 65.6%
- viability, T/C (second compound 0.00949 µM, first compound 0.00949 µM): 74.2%
- viability, T/C (second compound 0.00949 µM, first compound 0.03 µM): 61.7%
- viability, T/C (second compound 0.00949 µM, first compound 0.0949 µM): 62.8%
- viability, T/C (second compound 0.00949 µM, first compound 0.3 µM): 63.6%
- viability, T/C (second compound 0.03 µM, first compound 0.000949 µM): 67.4%
- viability, T/C (second compound 0.03 µM, first compound 0.003 µM): 60.7%
- viability, T/C (second compound 0.03 µM, first compound 0.00949 µM): 61%
- viability, T/C (second compound 0.03 µM, first compound 0.03 µM): 58.5%
- viability, T/C (second compound 0.03 µM, first compound 0.0949 µM): 55.4%
- viability, T/C (second compound 0.03 µM, first compound 0.3 µM): 51.4%
- viability, T/C (second compound 0.0949 µM, first compound 0.000949 µM): 47.5%
- viability, T/C (second compound 0.0949 µM, first compound 0.003 µM): 44.3%
- viability, T/C (second compound 0.0949 µM, first compound 0.00949 µM): 47.9%
- viability, T/C (second compound 0.0949 µM, first compound 0.03 µM): 47.4%
- viability, T/C (second compound 0.0949 µM, first compound 0.0949 µM): 45.6%
- viability, T/C (second compound 0.0949 µM, first compound 0.3 µM): 40.3%
- viability, T/C (second compound 0.3 µM, first compound 0.000949 µM): 34.7%
- viability, T/C (second compound 0.3 µM, first compound 0.003 µM): 41.8%
- viability, T/C (second compound 0.3 µM, first compound 0.00949 µM): 31.7%
- viability, T/C (second compound 0.3 µM, first compound 0.03 µM): 36.4%
- viability, T/C (second compound 0.3 µM, first compound 0.0949 µM): 36.6%
- viability, T/C (second compound 0.3 µM, first compound 0.3 µM): 33.4%

- IC50 (second compound 0.000949 µM): 73.6 nM
- IC50 (second compound 0.003 µM): 43.1 nM
- IC50 (second compound 0.00949 µM): 26.5 nM
- IC50 (second compound 0.03 µM): 4.98 nM
- IC50 (second compound 0.0949 µM): < 3.16 nM
- IC50 (second compound 0.3 µM): < 3.16 nM
SMILES: O=C(c1ccc(F)c(F)c1Nc1ccc(I)cc1F)N1CC(O)([C@@H]2CCCCN2)C1 + CCn1c(-c2cc(N3CCN(C)CC3)cnc2C(C)OC)c2c3cc(ccc31)-c1csc(n1)CC(NC(=O)C1CC1C)C(=O)N1CCCC(N1)C(=O)OCC(C)(C)C2
- viability, T/C [1]: 79.7%
- viability, T/C [2]: 75.5%
- viability, T/C [3]: 65.4%
- viability, T/C [4]: 45.2%
- viability, T/C (second compound 0.000949 µM, first compound 0.316 µM): 18.3%
- viability, T/C (second compound 0.000949 µM, first compound 1 µM): 6.04%
- viability, T/C [5]: 91.8%
- viability, T/C [6]: 74.2%
- viability, T/C [7]: 53.8%
- viability, T/C [8]: 40%
- viability, T/C (second compound 0.003 µM, first compound 0.316 µM): 14.5%
- viability, T/C (second compound 0.003 µM, first compound 1 µM): 7.31%
- viability, T/C [9]: 73.1%
- viability, T/C [10]: 63.4%
- viability, T/C [11]: 45.9%
- viability, T/C [12]: 32.7%
- viability, T/C (second compound 0.00949 µM, first compound 0.316 µM): 11.4%
- viability, T/C (second compound 0.00949 µM, first compound 1 µM): 7.1%
- viability, T/C [13]: 57.8%
- viability, T/C [14]: 37.1%
- viability, T/C [15]: 28.5%
- viability, T/C [16]: 18.5%
- viability, T/C (second compound 0.03 µM, first compound 0.316 µM): 8.58%
- viability, T/C (second compound 0.03 µM, first compound 1 µM): 5.7%
- viability, T/C [17]: 28.6%
- viability, T/C [18]: 27.8%
- viability, T/C [19]: 15.5%
- viability, T/C [20]: 7.38%
- viability, T/C (second compound 0.0949 µM, first compound 0.316 µM): 6.14%
- viability, T/C (second compound 0.0949 µM, first compound 1 µM): 4.07%
- viability, T/C [21]: 23.2%
- viability, T/C [22]: 17.1%
- viability, T/C [23]: 11.6%
- viability, T/C [24]: 6.62%
- viability, T/C (second compound 0.3 µM, first compound 0.316 µM): 6.7%
- viability, T/C (second compound 0.3 µM, first compound 1 µM): 5.28%
